The structures appear in SMILES notation.

Data set [1] concerns Rice cv. “Koshihikari”. The data set is described as follows: Effect on plant growth: plant height (stunting) of rice clumps after seedbox spray and transplanting into the field. Format: in vivo. The settings on record: 200 g of active ingredient A per hectare; three weeks after the treatment. From the text:
Rice cv. “Koshihikari” was sown in a seedbox and grown for 24 days under controlled warm and moist conditions in controlled-environment cabinets and in the greenhouse. Two days before the rice was transplanted into the field, each of the seedboxes was sprayed to runoff point with preparations of the active ingredient in the concentrations mentioned hereinbelow in the form of an aqueous suspension made with a stock solution consisting of 10% active ingredient, 85% cyclohexanone and 5% emulsifier. The seedboxes were subsequently cultured in the greenhouse for a further 2 days until the rice was manually transplanted into the field at a rate of 5 clumps per m^2.
Three weeks after the treatment, the plant height of the rice clumps was measured and compared with untreated rice plants. The extent of plant stunting is a measure for the plant-damaging effect of substances on the root system.

In data set [2] the test system is Echinochloa crus-galli (barnyardgrass, ECHCG). The data set is described as follows: Greenhouse post-emergence phytotoxicity, barnyardgrass. Format: in vivo. The settings on record: Table 2a, application rate 0.0039 kg/ha, scale 0 to 100. From the text:
(§1) The experimental period extended over 2 to 4 weeks.

Data set [3] relates to Oryza sativa (rice, ORYSA). As to the kind of experiment: Greenhouse post-emergence phytotoxicity, rice. The settings on record: Table 2a.
Description: The active ingredients were prepared separately or jointly as a 10% emulsion in a mixture of 85% by weight of cyclohexanone, 5% by weight of Nekanil® LN (Lutensol® AP6, wetter with emulsifying and dispersing action based on ethoxylated alkylphenols) and 10% by weight of Wettol® EM (nonionic emulsifier based on ethoxylated castor oil) and diluted with water to give the desired concentration.
The culture containers used were plastic pots containing loamy sand with approximately 3.0% humus as substrate. The seeds of the test plants were sown separately for each species.
The test plants were grown separately as seedlings and transplanted into the experimental containers a few days before the treatment.
Depending on the species, the plants were kept at temperatures of from 10 to 25° C. or 20 to 35° C. The experimental period extended over 2 to 4 weeks. During this time, the plants were tended, and their response to the individual treatments was evaluated.
The phytotoxicity was evaluated using a scale of from 0 to 100. In this context, 100 means complete destruction of at least the aerial parts, and 0 means no damage or normal course of growth.
Data set [4] has as its system Chenopodium album (pigweed, CHEAL). The data set is described as follows: Greenhouse post-emergence phytotoxicity, pigweed. Format: in vivo. The settings on record: Table 2b, application rate 0.0313 kg/ha, scale 0 to 100.
Description: as §1

The subject of data set [5] is Pharbitis purpurea (morningglory, PHBPU). As to the kind of experiment: Greenhouse post-emergence phytotoxicity, morningglory. Format: in vivo. The settings on record: scale 0 to 100.
Description: as §1

The subject of data set [6] is Triticum aestivum (spring wheat, TRZAS). As to the kind of experiment: Greenhouse post-emergence phytotoxicity, spring wheat. Format: in vivo. To be noted: Table 2b, scale 0 to 100.
Description: as §1

As for `C[C@H](Nc1c(-c2c(F)cc(F)cc2F)c(Cl)nc2ncnn12)C(F)(F)F` [A, [5-chloro-6-(2,4,6-trifluorophenyl)-[1,2,4]triazolo[1,5-a]pyrimidin-7-yl]-((S)-2,2,2-trifluoro-1-methylethyl)amine], the “stunting (plant height compared with untreated rice plants)” value in data set [1] is 15%.

Consider `Cc1c(C(=O)c2cnn(C)c2O)ccc(S(C)(=O)=O)c1C1=NOCC1` [B, [3-(4,5-dihydroisoxazol-3-yl)-4-methane-sulfonyl-2-methylphenyl]-(5-hydroxy-1-methyl-1H-pyrazol-4-yl)-methanone], for which the “Pytotoxicity ECHCG” value in data set [2] was determined as 90. In data set [3] (application rate 0.0039 kg/ha, scale 0 (no damage) to 100 (complete destruction)), the “Pytotoxicity ORYSA” value was found to be 20.

In the case of `FC(F)(F)c1ccc(-c2nccc(Oc3cccc(C(F)(F)F)c3)n2)cc1` [C, 4-(3-trifluoromethylphenoxy)-2-(4-trifluoromethylphenyl)pyrimidine], the “Pytotoxicity CHEAL” value in data set [4] turned out to be 98. Further, the “Pytotoxicity PHBPU” value in data set [5] (Table 2a, application rate 0.0078 kg/ha) is 98; in data set [5] (Table 2a, application rate 0.0156 kg/ha) it was 98; in data set [5] (Table 2b, application rate 0.0078 kg/ha) it was 98; in data set [5] (Table 2b, application rate 0.0156 kg/ha), 98. Also, the results for the “Pytotoxicity TRZAS” value in data set [6] (application rate 0.0078 kg/ha), in data set [6] (application rate 0.0156 kg/ha) and in data set [6] (application rate 0.0313 kg/ha) were 20, 25 and 30, respectively. For the same molecule, the “Pytotoxicity ORYSA” value in data set [3] (application rate 0.0078 kg/ha, scale 0 to 100) came to 10; in data set [3] (application rate 0.0156 kg/ha, scale 0 to 100), 10.

The record behind these values is patent publication US20050164882A1, “Method for increasing the resistance of plants to the phytotoxicity of agrochemicals” (priority 2002, published 2005).
